Reference: patent publication US6541503B2, “Substituted oxindole derivatives as protein tyrosine kinase and as protein serine/threonine kinase inhibitors” (SmithKline Beecham Corporation, priority 1997, dated 2003)
Like-named read-outs stand apart in the source and are kept apart here.

Experiments:
[1] = target: CDK2 (Homo sapiens, UniProt P24941); experiment: Cyclin dependent protein kinase substrate phosphorylation assay, CDK2; format: biochemical
Procedure: CDK1 and CDK2 were both expressed utilizing a baculovirus expression system and were partially purified to comprise 20-80% of total protein, with no detectable competing reactions present. […] Reactions were terminated with 0.2-2 volumes of either 20% acetic acid or 50-100 mM EDTA buffered to pH 7 (substrate consumption<20%). The buffer employed in enzyme assays was either 30 mM HEPES 7.4 containing 0.15 M NaCl and 5% DMSO, the buffer 50 mM MOPS 7.0 containing 0.15 M NaCl and 5% DMSO, or the buffer 100 mM HEPES pH 7.5 containing 0.1 mg /mL BSA and 5% DMSO. Inhibitors were diluted in 100% DMSO prior to addition into the assay. Detection of peptide phosphorylation was accomplished by scintillation counting following either collection of peptide onto phosphocellulose filters (for reactions stopped with acetic acid), collection of peptide in wells of 96 well plates coated with Streptavidin (Pierce) (reactions were stopped with EDTA), or addition of Avidin coated Scintillant impregnated beads (Scintillation Proximity Assays from Amersham, reactions were stopped with EDTA).

[2] = tested on: human diploid fibroblasts (HDF-3); experiment: G1-S progression assay (BrdU incorporation); format: cell-based
Procedure: This assay is designed to determine the ability of compounds to inhibit progression of cells from G1 into S-phase. […] The protocol is as follows:
(1) Grow human diploid fibroblasts (HDF-3) in 100 mm tissue culture dish to confluency. (2) Plate 6-7×10^3 cells/well in a 96 well plate in 100 μl of DMEM. (3) After 16-17 h add various dilutions of test compounds (0.045-100 μM). Dilute compound in DMEM containing DMSO and add 100 μl to each well so that the DMSO conc. is 0.6-0.8% in 200 μl final volume. (4) Two h after addition of compound, add 20 ul of 100 μM BrdU (final conc. 10 μM) Make 100 μM solution in DMEM from 10 mM stock solution. (5) After 4 h, add 200 μl PBS to each well and remove the contents of the wells by inverting the plate and soaking on to the paper towel. Repeat the washing step three times, with 400 ul PBS each time. (6) Fix the cells and denature the DNA by adding 200 μl fixation/denaturation solution to each well for 30-40 min. (7) Remove the fixation/denaturation solution by tapping the plate on the paper towel and add 75 ul of anti BrdU peroxidase antibody to each well. (dilute the antibody to 0.1 U/mL from 15 U/mL stock in PBS containing 1% BSA, Fraction V). Incubate the plate O/N at 4° C. (8) Remove the antibody solution and wash wells four times with 400 μl of PBS. Let the wash solution stay for 3-4 min during each wash. (9) Drain the wells and add 100 μl of chemiluminiscence Elisa reagent (Prepare the reagent 15-20 min before use to bring it to rt by mixing 100 parts of reagent A with 1 part of reagent B). (10) Read the plate in a luminometer. Take 2-3 readings within 6-7 min. Perform the following controls:
Deoxybromouridine (BrdU), anti BrdU peroxidase antibodies, fixation/denaturation solution, chemiluminiscence reagent and BSA Fraction V, were obtained from Boehringer Mannheim. The 96-well white plate with clear bottom were purchased from Corning Costar Corporation. Dulbecco's Modified Eagle Medium containing high glucose, L-glutamine and pyridoxine HCl was obtained from GIBCO BRL.

[3] = tested on: MES/SA ovarian carcinoma cells; experiment: FACS assay (cell death by flow cytometry), MES/SA; format: cell-based; conditions: Homo sapiens, MES-SA, 72 h, read-out: FACS MES/SA IC50
Procedure: (§1) These assays allow determination of both cell death and changes in cell cycle profile in cells following treatment of the compound. The assay is performend as follows:
(§2) 1. Cells are incubated in DMEM to which 10% FCS has been added in a humidified incubator at 37° C. and 5% by volume of CO2 in air. The cells are innoculated in 6-well plates at a density of 0.5-5×10^5 cells per well.
(§3) 2. The test compound is added in serial dilutions 24-36 h after plating in 0.5% DMSO. The plates are then incubated a further 72 h in the presence of the compound. During this time, cells in control cultures undergo at least three cell divisions.
(§4) 3. After incubation, the media is collected and cells are harvested by trypsinization. The cells and media are pooled and pelleted by centrifugation.
(§5) 4. The cell pellet is fixed in a final volume of 3 mL of 50% ice cold MeOH and incubated for a minimum of 30 min at −20° C.
(§6) 5. The cells are pelleted by centrifugation and resuspended in 0.5 mL PBS containing 1%FCS, […] Propidium Iodide (PI) and 5 mg/mL RNase A and incubated 30 min at 37° C. in the dark.
(§7) 6. The samples are analysed by flow cytometry using the relative incorporation of PI as a measure of DNA content of each cell. The % Dead cells is recorded as % of events with less than 2N DNA.
(§8) HDF are normal diploid fibroblast cells. RKO are colon adenocarcinoma cells and MES/SA are […].

[4] = tested on: HDF normal diploid fibroblast cells; experiment: FACS assay (cell death by flow cytometry), HDF; format: cell-based, human; conditions: Homo sapiens, Fibroblast, 72 h, read-out: FACS HDF IC50
Procedure: as §1, §2, §3, §4, §5, §6, §7, §8

[5] = tested on: MDA MB468; experiment: MTT assay, MDA MB468; format: cell-based, human
Procedure: Compounds are tested for their ability to inhibit cell proliferation and cell viability. The metabolic conversion of 3-(4,5-dimethylthiazol-2-yl)-2,5-diphenyltetrazolium bromide (MTT, Sigma #M2128) to a reduced form is a commonly used measure of cellular viability. Following is the procedure:
Cells are maintained in 75 cm^2 tissue culture flasks until ready for use. The cells are grown and plated for the assay in Dulbecco's modified Eagle's media (DMEM) containing 10% fetal bovine serum. For example, the following cell lines can be used: a) human foreskin fibroblasts (HFF); b) HT29 (human colon carcinoma cell line); c)MDA-MB-468 (human breast carcinoma cell line); d) RKO (human colon adenocarcinoma cell line); e) SW620 (human colon carcinoma cell line); f) A549 (human lung carcinoma cell line); and g) MIA PACA (human pancreatic carcinoma cell line). Cells are maintained at 37° C. in 10% CO2, 90% humidified air. Cells are plated in 96-well tissue culture plates at the densities listed below. 100 μL of cell suspension is added to each well of the 96-well plate except the top row of the plate which contains no cells and serves as a reference for the spectrophotometer.
Cells are incubated overnight in DMEM containing 10% fetal bovine serum at 37° C. in 10% CO2, 90% humidified air prior to dosing. […] Compounds with solubilities of less than 30 μM are dosed at the highest soluble concentration. Stock solutions of compounds are made in 100% dimethyl sulfoxide (DMSO). Stock solutions are diluted in DMEM containing 100 μg/ml gentamicin and 0.3 to 0.6% DMSO at the twice the highest concentration to be placed on the cells. If compounds have been dissolved in DMSO the final concentration of DMSO on the cells is kept below 0.3%. Three-fold serial dilutions are performed on each compound to prepare 10 concentrations of the compound for dosing. 100 μl of diluted compound is added to the 100 μl of media currently on the dish. For each concentration of compound, 2-4 replicate wells are prepared.
Cells are returned to incubator and allowed to proliferate in the presence of compound for 72 h before addition of MTT. MTT is prepared in phosphate buffered saline (Irvine Scientific #9240) at a concentration of 2 mg/ml. 50 μl per well of MTT solution is added to the 200 μl of media to yield a final concentration of 0.4 mg/ml and plates are returned to the incubator for 4 h. After 4 h incubation the media, compound and MTT mixture is aspirated from the plates and 100 μl of 100% DMSO is added to each well in addition to 25 μl of Sorenson's Buffer (0.1M glycine, 0.1M NaCl, pH 10.5). Quantitation of metabolic reduction of MTT in each plate is performed by reading optical density at 570 nm wavelength on a Molecular Devices UVmax microplate reader. Growth inhibition curves and 50% inhibitory concentrations are determined using Microsoft Excel.

[6] = Homo sapiens, Fibroblast, read-out: G1/S Chkpt IC50
[7] = Homo sapiens, MDA-MB-468, 72 h; read-out: MTT MDA MB468 IC50
[8] = Homo sapiens, Fibroblast; read-out: G1/S Chkpt IC50

| SMILES | IC50 [1] [nM] | IC50 [2, 6] [nM] | IC50 [3] [nM] | IC50 [4] [nM] | IC50 ([5]; Homo sapiens, MDA-MB-468, 72 h, read-out: MTT MDA MB468 IC50) [nM] | IC50 ([3]; 50% cell death) [nM] | IC50 [5, 7] [nM] | IC50 [2, 8] [nM] |
| --- | --- | --- | --- | --- | --- | --- | --- | --- |
| CNS(=O)(=O)Cc1ccc(NN=C2C(=O)Nc3ccc4ncccc4c32)cc1 [Example 68, N-Methyl-C-{4-[N′-(2-oxo-2,3-dihydro-pyrrolo[3,2-f]quinolin-1-ylidene)-hydrazino]-phenyl}-methanesulfonamide] | 1 to 10 | 1100 to 5000 | – | – | – | – | – | – |
| O=C1Nc2ccc3ncsc3c2C1=CNc1ccc(S(=O)(=O)Nc2ccccn2)cc1 [Example 72, 4-[(7-Oxo-6,7-dihydro-1-thia-3,6-diaza-as-indacen-8-ylidenemethyl)-amino]-N-pyridin-2-yl-benzenesulfonamide] | – | 1100 to 5000 | > 5000 | > 5000 | > 5000 | – | – | – |
| CS(=O)(=O)Cc1ccc(NC=C2C(=O)Nc3ccc4ncsc4c32)cc1 [Example 76, 8-(4-Methylsulfonylmethyl-phenylamino-methylene)-6,8-dihydro-1-thia-3,6-diaza-as-indacen-7-one] | 11 to 50 | – | – | – | – | 1100 to 5000 | > 5000 | 1100 to 5000 |
| CC(C)(CO)CNS(=O)(=O)c1ccc(NC=C2C(=O)Nc3ccc4ncsc4c32)cc1 [Example 77, N-(3-Hydroxy-2,2-dimethyl-propyl)-4-[(7-oxo-6,7-dihydro-1-thia-3,6-diaza-as-indacen-8-ylidenemethyl)-amino]-benzenesulfonamide] | – | – | – | – | – | 600 to 1000 | > 5000 | 1100 to 5000 |
| CNS(=O)(=O)Cc1ccc(NN=C2C(=O)Nc3cc(C)c(O)c(C)c32)cc1 [Example 99] | – | – | – | – | – | > 5000 | 100 to 500 | 1100 to 5000 |
